The conditions of data set [1]: cited from earlier work.
In data set [2] the test system is human skin mast cells. The following applies: cited from earlier work.
The test system of data set [3] is atopic dermatitis. Particulars: topical, cited from earlier work.
The subject of data set [4] is eye. In words: ocular toxicity after direct intraocular injection. Type of data set: in vivo, patient. An excerpt:
The toxicity of tacrolimus, which had been reported with tacrolimus administered systemically, was thought to limit its intraocular use. The toxicity of tacrolimus administered intraocularly had not been evaluated. Ocular toxicity may manifest as a gross and/or histologic retinal and/orvitreous toxic reaction. Evidence of such a toxic reaction may include one or more of white vitreous bodies, white vitreous opacities, electroretinography abnormalities such as reduction in mean B-wave amplitude in both scotopic and photopic conditions, occlusion of the temporal retinal vessels, and fibrin deposits.
As used herein, a lack of substantial toxicity encompasses both the absence of any manifestations of toxicity, as well as manifestations of toxicity which one skilled in the art would consider not sufficiently detrimental to decrease or cease treatment.
The intravenous solution form of tacrolimus may be diluted to achieve the indicated concentration using 0.9% NaCl or 5% dextrose, or an organic solvent such as dimethylsulfoxide (DMSO) or alcohol, preferably a low molecular weight alcohol. Intraocular administration may be any of the routes and formulations previously described. For injection, either a solution, emulsion, suspension of a liquid, capsular formulation of microspheres or liposomes, etc. may be used.

Consider `C=CC[C@@H]1/C=C(\C)C[C@H](C)C[C@H](OC)[C@H]2O[C@@](O)(C(=O)C(=O)N3CCCC[C@H]3C(=O)O[C@H](/C(C)=C/[C@@H]3CC[C@@H](O)[C@H](OC)C3)[C@H](C)[C@@H](O)CC1=O)[C@H](C)C[C@@H]2OC` [Tacrolimus], for which, in data set [1] (chloroform), the solubility in chloroform result is recorded as “very soluble”. In data set [1] (ethanol), the solubility in ethanol entry is on record as “freely soluble”. In addition, in data set [1] (methanol), the solubility in methanol entry was “very soluble”. Besides, the solubility in water entry in data set [1] (water) was “practically insoluble”. For the same compound, in data set [2], the anti-IgE-triggered histamine release entry is given as “inhibits” and the “prostaglandin D2 synthesis” value is “inhibits”. The “adverse effects, treated versus control groups” value in data set [3] (concentrations up to 0.3%) is on record as “no significant difference”. Also, the “clinical improvement in atopic dermatitis” value in data set [3] (doses 0.03%-0.3%, after 2-3 weeks treatment) is reported as “significant clinical improvement”. The local tolerability result in data set [3] is “well tolerated locally and only occasionally causes mild irritation”. In data set [4], the “dose of direct intraocular injection without substantial toxicity” value is “up to 250 μg”.

The record behind these values is patent US20030018044A1, “Treatment of ocular disease” (priority 2000, published 2003).
